From ChEMBL document CHEMBL1201861, “Genomics of Drug Sensitity in Cancer screening data, Wellcome Trust Sanger Institute”

Legend:
Assay type in all cases: functional, cell-based
HCC38 = experiment: cells; details: Homo sapiens;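 further: cell viability assay on the human HCC38 cell line, with IC50 marking the concentration that inhibits cell growth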
Description: SANGER: Inhibition of human HCC38 cell growth in a cell viability assay.

NCI-H810 = experiment: cells; details: Homo sapiens;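 further: IC50 reflects inhibition of cancer cell line growth, read out with a cell viability assay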
Description: SANGER: Inhibition of human NCI-H810 cell growth in a cell viability assay.

SW1710 = experiment: cells; details: Homo sapiens;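 further: growth inhibition of SW1710 cells, determined with a cell viability assay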
Description: SANGER: Inhibition of human SW1710 cell growth in a cell viability assay.

MDA-MB-361 = experiment: cells; details: Homo sapiens
SNU-C1 = experiment: cells; details: Homo sapiens;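 further: growth inhibition of SNU-C1 human cells, read out by a cell viability assay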
Description: SANGER: Inhibition of human SNU-C1 cell growth in a cell viability assay.

NALM-6 = experiment: cells; details: Homo sapiens;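 further: growth inhibition of NALM-6 cells, read out with a cell viability assay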
Description: SANGER: Inhibition of human NALM-6 cell growth in a cell viability assay.

23132-87 = experiment: cells; details: Homo sapiens
Description: SANGER: Inhibition of human 23132-87 cell growth in a cell viability assay.

Huh-7 = experiment: cells; details: Homo sapiens;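 further: HuH-7 cell growth inhibition, read out with a cell viability assay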
Description: SANGER: Inhibition of human HuH-7 cell growth in a cell viability assay.

SiHa = experiment: cells; details: Homo sapiens;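 further: Viability-based readout of growth inhibition in SiHa cells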
Description: SANGER: Inhibition of human SiHa cell growth in a cell viability assay.

EB-3 = experiment: cells; details: Homo sapiens;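 further: human EB-3 cells, growth inhibition read out via a cell viability assay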
Description: SANGER: Inhibition of human EB-3 cell growth in a cell viability assay.

NCI-H64 = experiment: cells; details: Homo sapiens;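 further: growth inhibition of NCI-H64 cells, read out with a cell viability assay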
Description: SANGER: Inhibition of human NCI-H64 cell growth in a cell viability assay.

DMS-273 = experiment: cells; details: Homo sapiens
Description: SANGER: Inhibition of human DMS-273 cell growth in a cell viability assay.

A2780 = experiment: cells; details: Homo sapiens;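 further: growth inhibition of A2780 cells, read out with a cell viability assay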
Description: SANGER: Inhibition of human A2780 cell growth in a cell viability assay.

Daudi = experiment: cells; details: Homo sapiens;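 further: growth inhibition of Daudi cells, read out by a viability assay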
Description: SANGER: Inhibition of human Daudi cell growth in a cell viability assay.

COLO-792 = experiment: cells; details: Homo sapiens
Description: SANGER: Inhibition of human COLO-792 cell growth in a cell viability assay.

COR-L279 = experiment: SANGER: Inhibition of human COR-L279 cell growth in a cell viability assay.
NCI-H1793 = experiment: cells; details: Homo sapiens;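 further: cell growth inhibition, read out by a cell viability assay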
Description: SANGER: Inhibition of human NCI-H1793 cell growth in a cell viability assay.

NCI-H358 = experiment: cells; details: Homo sapiens;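 further: growth inhibition of NCI-H358 human cells, read out with a cell viability assay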
Description: SANGER: Inhibition of human NCI-H358 cell growth in a cell viability assay.

SIMA = experiment: cells; details: Homo sapiens;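 further: growth inhibition of SIMA cells, measured with a cell viability readout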
Description: SANGER: Inhibition of human SIMA cell growth in a cell viability assay.

SR = experiment: cells; details: Homo sapiens
Description: SANGER: Inhibition of human SR cell growth in a cell viability assay.

Calu-3 = experiment: cells; details: Homo sapiens;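 further: growth inhibition of human Calu-3 cells, determined with a cell viability assay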
Description: SANGER: Inhibition of human Calu-3 cell growth in a cell viability assay.

NCI-H2196 = experiment: cells; details: Homo sapiens;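 further: cell viability assay used as the readout of growth inhibition in NCI-H2196 cells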
Description: SANGER: Inhibition of human NCI-H2196 cell growth in a cell viability assay.

HCC1954 = experiment: cells; details: Homo sapiens;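 further: growth inhibition of human HCC1954 cells, read out with a cell viability assay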
Description: SANGER: Inhibition of human HCC1954 cell growth in a cell viability assay.

MEL-HO = experiment: cells; details: Homo sapiens
Description: SANGER: Inhibition of human MEL-HO cell growth in a cell viability assay.

8305C = experiment: cells; details: Homo sapiens
Description: SANGER: Inhibition of human 8305C cell growth in a cell viability assay.

HuP-T3 = experiment: cells; details: Homo sapiens;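 further: HuP-T3 cell growth inhibition, read out with a cell viability assay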
Description: SANGER: Inhibition of human HuP-T3 cell growth in a cell viability assay.

A-427 = experiment: cells; details: Homo sapiens;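 further: growth inhibition of human A-427 cells, read out by a cell viability assay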
Description: SANGER: Inhibition of human A427 cell growth in a cell viability assay.

HOS = experiment: cells; details: Homo sapiens;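 further: growth inhibition of human HOS cells, read out with a cell viability assay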
Description: SANGER: Inhibition of human HOS cell growth in a cell viability assay.

NCI-H716 = experiment: cells; details: Homo sapiens;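 further: growth inhibition of human NCI-H716 cells, measured by a cell viability assay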
Description: SANGER: Inhibition of human NCI-H716 cell growth in a cell viability assay.

YKG-1 = experiment: cells; details: Homo sapiens;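 further: cell growth inhibition, read out with a viability assay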
Description: SANGER: Inhibition of human YKG-1 cell growth in a cell viability assay.

NCI-H1436 = experiment: cells; details: Homo sapiens;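 further: growth suppression of human NCI-H1436 cells, determined with a cell viability readout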
Description: SANGER: Inhibition of human NCI-H1436 cell growth in a cell viability assay.

ASPC1 = experiment: cells; details: Homo sapiens;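 further: growth inhibition of AsPC-1 cells, read out with a cell viability assay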
Description: SANGER: Inhibition of human AsPC-1 cell growth in a cell viability assay.

VM-CUB-1 = experiment: cells; details: Homo sapiens;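 further: cell viability assay measuring growth inhibition of the human VM-CUB-1 cell line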
Description: SANGER: Inhibition of human VM-CUB-1 cell growth in a cell viability assay.

TE-441-T = experiment: cells; details: Homo sapiens
Description: SANGER: Inhibition of human TE-441-T cell growth in a cell viability assay.

D-392MG = experiment: cells; details: Homo sapiens
BCPAP = experiment: cells; details: Homo sapiens;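 further: growth inhibition of BCPAP cells, read out in a cell viability assay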
Description: SANGER: Inhibition of human BCPAP cell growth in a cell viability assay.

KMS-12-PE = experiment: cells; details: Homo sapiens;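 further: growth inhibition of human KMS-12-PE cells, measured with a cell viability assay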
Description: SANGER: Inhibition of human KMS-12-PE cell growth in a cell viability assay.

SK-MM-2 = experiment: cells; details: Homo sapiens;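 further: growth inhibition of human SK-MM-2 cells, read out with a cell viability assay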
Description: SANGER: Inhibition of human SK-MM-2 cell growth in a cell viability assay.

A-431 = experiment: cells; details: Homo sapiens;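 further: growth inhibition of A-431 cells, determined with a cell viability read-out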
Description: SANGER: Inhibition of human A431 cell growth in a cell viability assay.

OAW-42 = experiment: cells; details: Homo sapiens;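 further: growth inhibition of OAW-42 cells, read out with a cell viability assay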
Description: SANGER: Inhibition of human OAW-42 cell growth in a cell viability assay.

Daoy = experiment: cells; details: Homo sapiens;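 further: daoy cell growth inhibition, read out as cell viability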
Description: SANGER: Inhibition of human Daoy cell growth in a cell viability assay.

SN12C = experiment: cells; details: Homo sapiens;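 further: growth inhibition of human SN12C cells, measured by a cell viability assay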
Description: SANGER: Inhibition of human SN12C cell growth in a cell viability assay.

HO-1-N-1 = experiment: cells; details: Homo sapiens;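 further: growth inhibition of human HO-1-N-1 cells, read out with a cell viability assay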
Description: SANGER: Inhibition of human HO-1-N-1 cell growth in a cell viability assay.

KU-19-19 = experiment: cells; details: Homo sapiens
Description: SANGER: Inhibition of human KU-19-19 cell growth in a cell viability assay.

AN3-CA = experiment: cells; details: Homo sapiens;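 further: growth inhibition of human AN3-CA cells measured by a cell viability assay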
Description: SANGER: Inhibition of human AN3-CA cell growth in a cell viability assay.

BEN = experiment: cells; details: Homo sapiens;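 further: growth inhibition of the BEN cell line, read out with a cell viability assay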
Description: SANGER: Inhibition of human BEN cell growth in a cell viability assay.

NCI-H522 = experiment: cells; details: Homo sapiens;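 further: cell viability assay measuring growth inhibition of human NCI-H522 cells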
Description: SANGER: Inhibition of human NCI-H522 cell growth in a cell viability assay.

MDA-MB-231 = experiment: cells; details: Homo sapiens
Description: SANGER: Inhibition of human MDA-MB-231 cell growth in a cell viability assay.

SK-OV-3 = experiment: cells; details: Homo sapiens;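 further: growth inhibition of SK-OV-3 human cells, read out with a cell viability assay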
Description: SANGER: Inhibition of human SK-OV-3 cell growth in a cell viability assay.

L-540 = experiment: cells; details: Homo sapiens;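 further: growth inhibition of the human L-540 cell line, read out with a viability assay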
Description: SANGER: Inhibition of human L-540 cell growth in a cell viability assay.

KP-N-YN = experiment: cells; details: Homo sapiens;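 further: growth inhibition of KP-N-YN cells, read out with a cell viability assay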
Description: SANGER: Inhibition of human KP-N-YN cell growth in a cell viability assay.

A2058 = experiment: cells; details: Homo sapiens;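 further: reduction of A2058 cell growth, read out with a viability assay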
Description: SANGER: Inhibition of human A2058 cell growth in a cell viability assay.

SCLC-21H = experiment: cells; details: Homo sapiens;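 further: growth inhibition of cultured human SCLC-21H cells, read out with a cell viability assay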
Description: SANGER: Inhibition of human SCLC-21H cell growth in a cell viability assay.

786-0 = experiment: cells; details: Homo sapiens
Description: SANGER: Inhibition of human 786-0 cell growth in a cell viability assay.

HuP-T4 = experiment: cells; details: Homo sapiens;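 further: cell viability assay measuring how much HuP-T4 cell growth is inhibited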
Description: SANGER: Inhibition of human HuP-T4 cell growth in a cell viability assay.

BOKU = experiment: cells; details: Homo sapiens;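 further: growth inhibition of the human BOKU cell line, read out by a cell viability assay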
Description: SANGER: Inhibition of human BOKU cell growth in a cell viability assay.

HSC-2 = experiment: cells; details: Homo sapiens;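 further: growth inhibition of human HSC-2 cells, read out by a cell viability assay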
Description: SANGER: Inhibition of human HSC-2 cell growth in a cell viability assay.

CMK = experiment: cells; details: Homo sapiens;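 further: growth inhibition of CMK cells, read out as cell viability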
Description: SANGER: Inhibition of human CMK cell growth in a cell viability assay.

NCI-H460 = experiment: cells; details: Homo sapiens;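 further: cell viability assay scoring growth inhibition of human NCI-H460 cells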
Description: SANGER: Inhibition of human NCI-H460 cell growth in a cell viability assay.

H4 = experiment: cells; details: Homo sapiens
Description: SANGER: Inhibition of human H4 cell growth in a cell viability assay.

ST486 = experiment: SANGER: Inhibition of human ST486 cell growth in a cell viability assay.
MC-IXC = experiment: cells; details: Homo sapiens;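 further: growth inhibition of MC-IXC cells, read out with a cell viability assay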
Description: SANGER: Inhibition of human MC-IXC cell growth in a cell viability assay.

HCC 2998 = experiment: cells; details: Homo sapiens;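 further: growth inhibition of human HCC2998 cells, measured with a cell viability read-out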
Description: SANGER: Inhibition of human HCC2998 cell growth in a cell viability assay.

MKN-1 = experiment: cells; details: Homo sapiens
Description: SANGER: Inhibition of human MKN1 cell growth in a cell viability assay.

NCI-H2087 = experiment: cells; details: Homo sapiens
Description: SANGER: Inhibition of human NCI-H2087 cell growth in a cell viability assay.

N#C/C(=C1/Nc2ccccc2S1)c1ccnc(NCCc2cccnc2)n1
IC50 (HCC38): 5300 nM
IC50 (NCI-H810): 5340 nM
IC50 (SW1710): 1590 nM
IC50 (MDA-MB-361): 6490 nM
IC50 (SNU-C1): > 8000 nM
IC50 (NALM-6): 4490 nM
IC50 (23132-87): 7100 nM
IC50 (Huh-7): > 8000 nM
IC50 (SiHa): > 8000 nM
IC50 (EB-3): > 8000 nM
IC50 (NCI-H64): > 8000 nM
IC50 (DMS-273): 1490 nM
IC50 (A2780): > 8000 nM
IC50 (Daudi): 6540 nM
IC50 (COLO-792): > 8000 nM
IC50 (COR-L279): > 8000 nM
IC50 (NCI-H1793): > 8000 nM
IC50 (NCI-H358): 1900 nM
IC50 (SIMA): > 8000 nM
IC50 (SR): 1880 nM
IC50 (Calu-3): > 8000 nM
IC50 (NCI-H2196): > 8000 nM
IC50 (HCC1954): > 8000 nM
IC50 (MEL-HO): 5460 nM
IC50 (8305C): > 8000 nM
IC50 (HuP-T3): > 8000 nM
IC50 (A-427): > 8000 nM
IC50 (HOS): > 8000 nM
IC50 (NCI-H716): > 8000 nM
IC50 (YKG-1): 3770 nM
IC50 (NCI-H1436): > 8000 nM
IC50 (ASPC1): > 8000 nM
IC50 (VM-CUB-1): > 8000 nM
IC50 (TE-441-T): > 8000 nM
IC50 (D-392MG): > 8000 nM
IC50 (BCPAP): 4450 nM
IC50 (KMS-12-PE): > 8000 nM
IC50 (SK-MM-2): > 8000 nM
IC50 (A-431): > 8000 nM
IC50 (OAW-42): 7700 nM
IC50 (Daoy): > 8000 nM
IC50 (SN12C): > 8000 nM
IC50 (HO-1-N-1): > 8000 nM
IC50 (KU-19-19): > 8000 nM
IC50 (AN3-CA): 2590 nM
IC50 (BEN): > 8000 nM
IC50 (NCI-H522): 4930 nM
IC50 (MDA-MB-231): > 8000 nM
IC50 (SK-OV-3): > 8000 nM
IC50 (L-540): > 8000 nM
IC50 (KP-N-YN): > 8000 nM
IC50 (A2058): > 8000 nM
IC50 (SCLC-21H): > 8000 nM
IC50 (786-0): 3080 nM
IC50 (HuP-T4): 4440 nM
IC50 (BOKU): > 8000 nM
IC50 (HSC-2): > 8000 nM
IC50 (CMK): 2750 nM
IC50 (NCI-H460): > 8000 nM
IC50 (H4): > 8000 nM
IC50 (ST486): 1740 nM
IC50 (MC-IXC): > 8000 nM
IC50 (HCC 2998): 3170 nM
IC50 (MKN-1): 2900 nM
IC50 (NCI-H2087): > 8000 nM

CO[C@@]12[C@H](COC(N)=O)C3=C(C(=O)C(C)=C(N)C3=O)N1C[C@@H]1N[C@@H]12 [MITOMYCIN]
IC50 (HCC38): 604 nM
IC50 (NCI-H810): 252 nM
IC50 (SW1710): 72.6 nM
IC50 (MDA-MB-361): 809 nM
IC50 (SNU-C1): 1910 nM
IC50 (NALM-6): < 62.5 nM
IC50 (23132-87): 30.5 nM
IC50 (Huh-7): 3220 nM
IC50 (SiHa): 1890 nM
IC50 (EB-3): 3200 nM
IC50 (NCI-H64): 1530 nM
IC50 (DMS-273): 161 nM
IC50 (A2780): 107 nM
IC50 (Daudi): 392 nM
IC50 (COLO-792): 1500 nM
IC50 (COR-L279): < 62.5 nM
IC50 (NCI-H1793): 1810 nM
IC50 (NCI-H358): 276 nM
IC50 (SIMA): 241 nM
IC50 (SR): < 62.5 nM
IC50 (Calu-3): 321 nM
IC50 (NCI-H2196): 886 nM
IC50 (HCC1954): 2280 nM
IC50 (MEL-HO): 39.4 nM
IC50 (8305C): 156 nM
IC50 (HuP-T3): 711 nM
IC50 (A-427): 301 nM
IC50 (HOS): 107 nM
IC50 (NCI-H716): 2820 nM
IC50 (YKG-1): 545 nM
IC50 (NCI-H1436): 1930 nM
IC50 (ASPC1): 2900 nM
IC50 (VM-CUB-1): 261 nM
IC50 (TE-441-T): 1600 nM
IC50 (D-392MG): 6680 nM
IC50 (BCPAP): 240 nM
IC50 (KMS-12-PE): 3830 nM
IC50 (SK-MM-2): 2720 nM
IC50 (A-431): 43.8 nM
IC50 (OAW-42): 89.4 nM
IC50 (Daoy): 88 nM
IC50 (SN12C): 3460 nM
IC50 (HO-1-N-1): 441 nM
IC50 (KU-19-19): 3360 nM
IC50 (AN3-CA): 523 nM
IC50 (BEN): 935 nM
IC50 (NCI-H522): 169 nM
IC50 (MDA-MB-231): 3240 nM
IC50 (SK-OV-3): 143 nM
IC50 (L-540): 95.1 nM
IC50 (A2058): 115 nM
IC50 (SCLC-21H): 963 nM
IC50 (786-0): < 62.5 nM
IC50 (HuP-T4): 108 nM
IC50 (BOKU): 104 nM
IC50 (HSC-2): 83.4 nM
IC50 (CMK): < 62.5 nM
IC50 (NCI-H460): < 62.5 nM
IC50 (H4): < 62.5 nM
IC50 (ST486): 494 nM
IC50 (MC-IXC): < 62.5 nM
IC50 (HCC 2998): 160 nM
IC50 (MKN-1): 541 nM
IC50 (NCI-H2087): 85.7 nM
